The values that follow come from patent US20210177862A1, “METHOD FOR TREATING NEUROCOGNITIVE DYSFUNCTION” (Tonix Pharma Holdings Limited, priority 2008, published 2021).

Assay [1] has as its system corticosteroid-induced cognitive impairment. Description: Case report (Example 1): tianeptine given to a patient with cognitive side effects from prednisone therapy. Format: in vivo, human. An excerpt: (§1) Patient was diagnosed with a medical condition known as pulmonary sarcoidosis in which immune cells (lymphocytes and macrophages) are abnormally activated and accumulate in the lung, progressively destroying the architecture and functional capacity of lung tissue. Treatment is necessary to prevent progression of the disease and loss of more pulmonary functional capacity. Standard treatment is with systemic corticosteroids due to the capacity of corticosteroids for suppressing immune function. Patient was started on prednisone 40 mg by mouth each morning, with a plan to taper the dose by 5 mg every two weeks until at 25 mg a day. After three months the level of response to corticosteroids would be assessed by repeat pulmonary function tests and chest x-ray. If the disease process was responsive to corticosteroids, the treatment would be continued to finish a full year on about 25 mg a day.
The memory disturbance was profound and sharply contrasted with patient's normal memory function. The “foggy” feeling was present all day long, and was similar to the feeling of having taken a sedating antihistamine like diphenhydramine (Benadryl). Patient found they could only concentrate with much effort, with rapidly developing mental fatigue preventing sustained efforts. Examples of memory impairment resulting from the prednisone were much like some of the memory disturbance seen in Alzheimer's dementia in which there is impairment in the process of consolidation of short term memories into long term memories, a process known to depend on intact hippocampal function.
Patient began tianeptine (Stablon) at 12.5 mg, one pill in the morning. Four days later, patient increased the dose to 12.5 mg twice a day, finally, two days after the prior increase, patient increased the dose to 25 mg each morning and 12.5 mg each evening. In the first several days taking tianeptine, patient noted the “foggy” feeling had gone away.
Although beginning tianeptine correlated with the rapid improvement in cognitive function, it was uncertain whether the tianeptine was responsible for the improvement.
There was the alternate possibility that patient was simply adjusting to the corticosteroids, with reduction in the cognitive side effects manifesting over the first several weeks after beginning corticosteroids. Nonetheless, patient continued to take the tianeptine. Also, it seemed possible that prednisone at 40 mg a day had been producing worse side effects than the lower doses of 35 mg, 30 mg, and 25 mg a day patient had tapered down to after starting the tianeptine.
Patient stopped tianeptine treatment two months later, tapering the dose over three days. Within about 2-3 days after the final dose of tianeptine, patient experienced the gradual emergence of the same cognitive side effects of the corticosteroids that patient had been experiencing in before initial tianeptine treatment including poor memory, extreme difficulty concentrating and sustaining mental effort, and the general “foggy” feeling once again pervading. This continued up for two weeks when patient restarted tianeptine treatment. […] Patient has continued on tianeptine 25 mg each morning and 12.5 mg each evening since then.

Another assay relates to pulmonary sarcoidosis. The class given is in vivo, human. The note with it: prednisone tapered from 40 mg to 25 mg a day.
Text: as §1
The memory disturbance was profound and sharply contrasted with patient's normal memory function. The “foggy” feeling was present all day long, and was similar to the feeling of having taken a sedating antihistamine like diphenhydramine (Benadryl). Patient found they could only concentrate with much effort, with rapidly developing mental fatigue preventing sustained efforts. […]

[2] abbreviates: patient on prednisone, first several days taking tianeptine.

For `CN1c2ccccc2C(NCCCCCCC(=O)O)c2ccc(Cl)cc2S1(=O)=O` (stereo not drawn) [tianeptine, 7-[(3-chloro-6,11-dihydro-6-methyl-dibenzo[c,f][1,2]thiazepin-11-yl)amino] heptanoic acid S,S-dioxide], the “time frame of effect after initiation of treatment” value in assay [1] (mitigation of corticosteroid cognitive side effects) is 24 to 72 h. In addition, the “effect of tianeptine in mitigating the side effects of the corticosteroids” value in assay [1] (off/on tianeptine episode, 25 mg each morning and 12.5 mg each evening) is reported as “large effect”. Moreover, in assay [1] (setting [2]), the ability to concentrate entry is recorded as “appeared to normalize” and the episodic memory result is recorded as “significantly improved”. Also, in assay [1] (patient on prednisone, first several days taking tianeptine 12.5 mg up to 25 mg morning + 12.5 mg evening, oral), the “"foggy" feeling” value was “had gone away”. In addition, the “time after restarting tianeptine to definite improvement” value in assay [1] (restart after two weeks off tianeptine, on prednisone) was no more than 24 h. In addition, the “cognitive function after restarting tianeptine” value in assay [1] (three days after restart, on prednisone) is “pretty much returned to normal baseline”. Also, the “time after final dose of tianeptine to gradual emergence of the same cognitive side effects of the corticosteroids” value in assay [1] (tianeptine stopped (tapered over three days), prednisone 25 mg a day continued) lay in the range of 2 to 3 days.
Consider `C[C@]12C=CC(=O)C=C1CC[C@@H]1[C@@H]2C(=O)C[C@@]2(C)[C@H]1CC[C@]2(O)C(=O)CO` [prednisone], for which the “follow-up pulmonary function tests” value with pulmonary sarcoidosis is “indicated improvement”.
